From patent US11214803B2, “Modulators of YAP1 expression” (Ionis Pharmaceuticals, Inc., priority 2019, dated 2022)
Strand notation (5' to 3'): a small letter for the sugar, then the base; units joined by * are phosphorothioate-linked, units joined directly phosphodiester-linked; [ ] holds rarer units or linkages, { } end groups; capitals alone tell only the bases. k = constrained ethyl (cEt); [5mC] = 5-methylcytosine; d = 2'-deoxy (DNA)

Tested on: Yap1 mRNA
Assay: Antisense inhibition of human Yap1 in A-431 cells by cEt gapmers, single dose (Example 2, RTS4814)
Assay type: cell-based
How it was run: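 A-431 cells (5,000/well) took up 2,000 nM 3-10-3 cEt gapmer by free uptake for ~48 h. Yap1 mRNA was quantified by qRT-PCR with primer probe set RTS4814, normalized to RIBOGREEN total RNA, and reported as % of untreated control.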

[1] = Table 6, A-431 cells, 5,000 cells per well, free uptake, 2,000 nM modified oligonucleotide, approx. 48 hours, RTS4814, normalized to RIBOGREEN, Yap1 mRNA relative to untreated control cells
[2] = A-431 cells, 5,000 cells per well, free uptake, 2,000 nM modified oligonucleotide, approx. 48 hours, RTS4814, normalized to RIBOGREEN, Table 4, asterisk (*) = targets amplicon region of primer probe set
[3] = Table 5, A-431 cells, 5,000 cells per well, free uptake, 2,000 nM modified oligonucleotide, approx. 48 hours, RTS4814, normalized to RIBOGREEN, Yap1 mRNA relative to untreated control cells
[4] = Table 24, Yap1 mRNA as percent of untreated control, 3-10-3 cEt gapmers targeting SEQ ID NO.: 1, and 2
[5] = Yap1 mRNA as percent of untreated control, A-431 cells, 3-10-3 cEt gapmers targeting SEQ ID NO.: 1, and 2, Table 31
[6] = Table 23, Yap1 mRNA as percent of untreated control, 3-10-3 cEt gapmers, single dose

Q: For “716567 (kG*kA*k[5mC]*dT*dA*dT*dA*d[5mC]*dA*dA*d[5mC]*dA*dG*kG*k[5mC]*k[5mC]; antisense) [Compound 716567]”, which “YAP1 (% UTC)” value [1] is on record?
A: Its value is 134 % UTC.

Q: Which “YAP1 (% UTC)” value [2] does the source give for “716535 (antisense k[5mC]*k[5mC]*kT*dG*dA*d[5mC]*dT*dG*dA*dA*dA*dA*dT*kA*kA*k[5mC]) [Compound 716535]” here?
A: The value was 86 % UTC.

Q: For “716479 (kG*kA*kA*d[5mC]*dA*dA*dT*d[5mC]*dT*dT*dG*dA*dA*kG*kG*k[5mC]; antisense) [Compound 716479]”, which “YAP1 (% UTC)” value [3] is on record?
A: Its value is 32 % UTC.

Q: For “1074762 (kG*k[5mC]*kT*dA*d[5mC]*d[5mC]*d[5mC]*dA*dA*dT*dA*d[5mC]*dA*kA*k[5mC]*k[5mC]; antisense) [Compound 1074762]”, which “YAP1 (% UTC)” value [4] is on record?
A: Its value is 6 % UTC.

Q: “716463 (kG*kA*k[5mC]*dT*dG*d[5mC]*d[5mC]*d[5mC]*d[5mC]*dA*dA*d[5mC]*d[5mC]*kA*kG*kA; antisense) [Compound 716463]” was tested. Which “YAP1 (% UTC)” value [2] did it give?
A: The value was 64 % UTC.

Q: With “1074802 (kG*kG*k[5mC]*dA*d[5mC]*dT*dA*d[5mC]*dA*dT*dT*dT*dA*kG*kA*kA; antisense) [compound 1074802]” as the substance, how does the “YAP1 (% UTC)” value (Table 32, Yap1 mRNA, percent of untreated control, 3-10-3 cEt gapmers targeting SEQ ID NO.: 1, and 2) read?
A: Its value is 37 % UTC.

Q: Which “YAP1 (% UTC)” value [3] does the source give for “716530 (antisense kA*k[5mC]*kA*dT*d[5mC]*dA*dA*dG*dG*d[5mC]*dT*dA*dT*kG*kA*kT) [Compound 716530]” here?
A: The value was 83 % UTC.

Q: Which “YAP1 (% UTC)” value [1] does the source give for “716372 (kA*kT*kG*dA*dG*d[5mC]*dT*d[5mC]*dG*dA*dA*d[5mC]*dA*kT*kG*k[5mC]; antisense) [Compound 716372]” here?
A: Its value is 61 % UTC.

Q: How did the “YAP1 (% UTC)” value [5] turn out when “1074545 (kA*k[5mC]*kT*d[5mC]*d[5mC]*d[5mC]*d[5mC]*dT*dA*dG*dG*d[5mC]*dA*k[5mC]*kT*kA; antisense) [compound 1074545]” was run?
A: The value was 18 % UTC.

Q: For “1076234 (k[5mC]*k[5mC]*kT*dT*dA*dA*dT*dA*dT*dA*dT*d[5mC]*d[5mC]*kA*k[5mC]*kA; antisense) [Compound 1076234]”, which “YAP1 (% UTC)” value [4] is on record?
A: The value was 24 % UTC.

Q: For “1075344 (antisense kT*kA*kA*d[5mC]*dT*dA*dA*dA*dA*dG*dG*dG*dA*kG*kT*kA) [compound 1075344]”, which “YAP1 (% UTC)” value (Yap1 mRNA as percent of untreated control, A-431 cells, 3-10-3 cEt gapmers targeting SEQ ID NO.: 1, and 2, Table 30) is on record?
A: Its value is 91 % UTC.

Q: For “716503 (kT*kT*kA*dT*dT*dA*dT*dG*dA*dG*dT*dG*dA*kT*k[5mC]*kA; antisense) [Compound 716503]”, which “YAP1 (% UTC)” value [3] is on record?
A: The value was 33 % UTC.

Q: Which “YAP1 (% UTC)” value [6] does the source give for “1075721 (kT*kT*kA*dA*dA*dT*dA*d[5mC]*d[5mC]*dT*dT*d[5mC]*dT*kA*kG*k[5mC]; antisense) [Compound 1075721]” here?
A: Its value is 67 % UTC.

Q: With “1075081 (antisense kG*kA*kT*dT*dA*d[5mC]*dA*dA*dA*dG*dA*d[5mC]*dA*kG*k[5mC]*k[5mC]) [Compound 1075081]” as the substance, how does the “YAP1 (% UTC)” value [6] read?
A: Its value is 7 % UTC.

Q: “1074289 (antisense kT*kG*kA*d[5mC]*dT*dG*dA*dT*dT*d[5mC]*dT*d[5mC]*dT*kG*kG*kT) [compound 1074289]” was tested. Which “YAP1 (% UTC)” value [5] did it give?
A: The value was 13 % UTC.

Q: For “1075817 (k[5mC]*k[5mC]*kT*dA*dA*dA*dG*dA*dA*dG*dT*d[5mC]*dT*kT*kG*kG; antisense) [Compound 1075817]”, which “YAP1 (% UTC)” value [6] is on record?
A: The value was 100 % UTC.
